Data on 20 molecules can be found in patent US9447038B2 (SANOFI, priority 2012, dated 2016).

In general, IC50 refers to the concentration needed to halve the response being measured.

Structures can show the parent of a compound that is named as a salt.

The test deals with human CXCR3-A receptor (Homo sapiens (Human), UniProt P49682). The experiment in a line: 125I-CXCL10 competition radioligand binding assay.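 Further: One-hour incubation of membranes with tracer, bound radioligand separated by glass fibre filtration, IC50 derived from four-parameter nonlinear fit of competition curves.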 The conditions noted are these: displacement of 125I-CXCL10 from membranes of CHO cells expressing human recombinant CXCR3-A.
Sequence of human CXCR3-A receptor (P49682 whole entry): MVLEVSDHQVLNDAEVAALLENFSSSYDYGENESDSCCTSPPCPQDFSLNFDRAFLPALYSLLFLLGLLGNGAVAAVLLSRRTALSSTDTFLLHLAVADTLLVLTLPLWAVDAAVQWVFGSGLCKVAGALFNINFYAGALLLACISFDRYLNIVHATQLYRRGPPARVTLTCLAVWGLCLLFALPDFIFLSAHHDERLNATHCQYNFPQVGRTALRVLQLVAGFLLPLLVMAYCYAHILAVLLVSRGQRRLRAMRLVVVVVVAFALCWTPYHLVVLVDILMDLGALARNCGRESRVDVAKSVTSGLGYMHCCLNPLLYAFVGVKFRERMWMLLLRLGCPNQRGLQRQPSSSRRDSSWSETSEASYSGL
For `CCc1cc(CN(CC2CCCC2)C(CC(=O)O)c2ccc(Cl)c(Cl)c2)ccc1OCCN1C(=O)CCC1=O` (centres unmarked) [Example 100, 3-(Cyclopentylmethyl-{4-[2-(2,5-dioxo-pyrrolidin-1-yl)-ethoxy]-3-ethyl-benzyl}-amino)-3-(3,4-dichloro-phenyl)-propionic acid], the 50% inhibitory concentration (IC50) came out at 464 nM. On to `CCc1cc(CN(CC2CCCCC2)C(CC(=O)O)c2ccc(Cl)c(Cl)c2)ccc1OCCN1C(=O)CCC1=O` (centres unmarked) [Example 101, 3-(Cyclohexylmethyl-{4-[2-(2,5-dioxo-pyrrolidin-1-yl)-ethoxy]-3-ethyl-benzyl}-amino)-3-(3,4-dichloro-phenyl)-propionic acid], for which the IC50 came to 292 nM.

Consider `O=C(O)CC(c1ccc(Cl)cc1)N(Cc1ccc(OCCN2C(=O)CCC2=O)c(Cl)c1)CC1CC1` (centres unmarked) [Example 102, 3-({3-Chloro-4-[2-(2,5-dioxo-pyrrolidin-1-yl)-ethoxy]-benzyl}-cyclopropylmethyl-amino)-3-(4-chloro-phenyl)-propionic acid; hydrochloride], for which the IC50 came to 83 nM. Consider `CCCN(Cc1ccc(OCCN2C(=O)CCC2=O)c(Cl)c1)C(CC(=O)O)c1ccc(Cl)cc1` (centres unmarked) [Example 103, 3-({3-Chloro-4-[2-(2,5-dioxo-pyrrolidin-1-yl)-ethoxy]-benzyl}-propyl-amino)-3-(4-chloro-phenyl)-propionic acid], for which the half-inhibitory concentration (IC50) was 170 nM. For `O=C(O)C[C@@H](c1ccc(Cl)cc1)N(Cc1ccc(OCCN2C(=O)CCC2=O)c(Cl)c1)CC1CCC1` [Example 104, (S)-3-({3-Chloro-4-[2-(2,5-dioxo-pyrrolidin-1-yl)-ethoxy]-benzyl}-cyclobutylmethyl-amino)-3-(4-chloro-phenyl)-propionic acid], the IC50 stood at 145 nM. With `CCCN(Cc1ccc(OCCN2C(=O)CCC2=O)c(Cl)c1)C(CC(=O)O)c1ccc(Cl)c(F)c1` (centres unmarked) [Example 105, 3-({3-Chloro-4-[2-(2,5-dioxo-pyrrolidin-1-yl)-ethoxy]-benzyl}-propyl-amino)-3-(4-chloro-3-fluoro-phenyl)-propionic acid], the IC50 was 211 nM.

As for `O=C(O)CC(c1ccc(Cl)c(Cl)c1)N(Cc1ccc(OCCN2C(=O)CCC2=O)c(Cl)c1)CC1CC1` (centres unmarked) [Example 106, 3-({3-Chloro-4-[2-(2,5-dioxo-pyrrolidin-1-yl)-ethoxy]-benzyl}-cyclopropylmethyl-amino)-3-(3,4-dichloro-phenyl)-propionic acid; hydrochloride], the concentration for half-maximal inhibition (IC50) is 223 nM.

Take `CCCN(Cc1ccc(OCCN2C(=O)CCC2=O)c(Cl)c1)C(CC(=O)O)c1ccc(Cl)c(Cl)c1` (centres unmarked) [Example 107, 3-({3-Chloro-4-[2-(2,5-dioxo-pyrrolidin-1-yl)-ethoxy]-benzyl}-propyl-amino)-3-(3,4-dichloro-phenyl)-propionic acid]: the half-inhibitory concentration (IC50) stood at 570 nM. As to `COc1cc(CN(CC2CC2)[C@H](C(=O)O)c2ccc(Cl)c(Cl)c2)ccc1OCCN1C(=O)CCC1=O` [Example 108, (S)-(Cyclopropylmethyl-{4-[2-(2,5-dioxo-pyrrolidin-1-yl)-ethoxy]-3-methoxy-benzyl}-amino)-(3,4-dichloro-phenyl)-acetic acid], the 50% inhibitory concentration (IC50) came out at 200 nM.

With `COc1cc(CN(CC(C)C)[C@@H](C(=O)O)c2ccc(Cl)c(Cl)c2)ccc1OCCN1C(=O)CCC1=O` [Example 110, (R)-(3,4-Dichloro-phenyl)-({4-[2-(2,5-dioxo-pyrrolidin-1-yl)-ethoxy]-3-methoxy-benzyl}-isobutyl-amino)-acetic acid], the IC50 stood at 786 nM. Next, `COc1cc(CN(CC2CC2)[C@@H](C(=O)O)c2ccc(Cl)c(Cl)c2)ccc1OCCN1C(=O)CCC1=O` [Example 111, (R)-(Cyclopropylmethyl-{4-[2-(2,5-dioxo-pyrrolidin-1-yl)-ethoxy]-3-methoxy-benzyl}-amino)-(3,4-dichloro-phenyl)-acetic acid]: 420 nM; `COc1cc(CN(CC2CC2)C(CC(=O)O)c2ccc(Cl)c(Cl)c2)ccc1OCCn1c(=O)ccn(C)c1=O` (centres unmarked) [Example 124, 3-(Cyclopropylmethyl-{3-methoxy-4-[2-(3-methyl-2,6-dioxo-3,6-dihydro-2H-pyrimidin-1-yl)-ethoxy]-benzyl}-amino)-3-(3,4-dichloro-phenyl)-propionic acid]: 30 nM; `CCCN(Cc1ccc(OCCn2c(=O)ccn(C)c2=O)c(OC)c1)C(CC(=O)O)c1ccc(Cl)c(Cl)c1` (centres unmarked) [Example 125, 3-(3,4-Dichloro-phenyl)-3-({3-methoxy-4-[2-(3-methyl-2,6-dioxo-3,6-dihydro-2H-pyrimidin-1-yl)-ethoxy]-benzyl}-propyl-amino)-propionic acid]: 72 nM. Then `CCN(Cc1ccc(OCCn2c(=O)ccn(C)c2=O)c(OC)c1)C(CC(=O)O)c1ccc(Cl)c(Cl)c1` (centres unmarked) [Example 126, 3-(3,4-Dichloro-phenyl)-3-(ethyl-{3-methoxy-4-[2-(3-methyl-2,6-dioxo-3,6-dihydro-2H-pyrimidin-1-yl)-ethoxy]-benzyl}-amino)-propionic acid], with 310 nM; and `COc1cc(CN(CC2CCCC2)C(CC(=O)O)c2ccc3c(c2)CCO3)ccc1OCCn1c(=O)ccn(C)c1=O` (centres unmarked) [Example 127, 3-(Cyclopentylmethyl-{3-methoxy-4-[2-(3-methyl-2,6-dioxo-3,6-dihydro-2H-pyrimidin-1-yl)-ethoxy]-benzyl}-amino)-3-(2,3-dihydro-benzofuran-5-yl)-propionic acid], with 38 nM.

`COc1cc(CN(CC2CCCCC2)C(CC(=O)O)c2ccc3c(c2)CCO3)ccc1OCCn1c(=O)ccn(C)c1=O` (centres unmarked) [Example 128, 3-(Cyclohexylmethyl-{3-methoxy-4-[2-(3-methyl-2,6-dioxo-3,6-dihydro-2H-pyrimidin-1-yl)-ethoxy]-benzyl}-amino)-3-(2,3-dihydro-benzofuran-5-yl)-propionic acid]: the half-maximal inhibitory concentration (IC50) turned out to be 118 nM. Turning to `Cc1cc(CN(CCC(F)(F)F)C(CC(=O)O)c2ccc(Cl)cc2)ccc1OCCn1c(=O)ccn(C)c1=O` (centres unmarked) [Example 129, 3-(4-Chloro-phenyl)-3-[{3-methyl-4-[2-(3-methyl-2,6-dioxo-3,6-dihydro-2H-pyrimidin-1-yl)-ethoxy]-benzyl}-(3,3,3-trifluoro-propyl)-amino]-propionic acid], the 50% inhibitory concentration (IC50) worked out at 2150 nM.

Consider `COc1cc(CN(CCC(F)(F)F)C(CC(=O)O)c2ccc(Cl)cc2)ccc1OCCn1c(=O)ccn(C)c1=O` (centres unmarked) [Example 130, 3-(4-Chloro-phenyl)-3-[{3-methoxy-4-[2-(3-methyl-2,6-dioxo-3,6-dihydro-2H-pyrimidin-1-yl)-ethoxy]-benzyl}-(3,3,3-trifluoro-propyl)-amino]-propionic acid], for which the IC50 was 1250 nM. Then `Cc1cc(CN(CC2CC2)C(CC(=O)O)c2ccc3c(c2)CCO3)ccc1OCCn1c(=O)ccn(C)c1=O` (centres unmarked) [Example 131, 3-(Cyclopropylmethyl-{3-methyl-4-[2-(3-methyl-2,6-dioxo-3,6-dihydro-2H-pyrimidin-1-yl)-ethoxy]-benzyl}-amino)-3-(2,3-dihydro-benzofuran-5-yl)-propionic acid], with 42 nM. As to `COc1cc(CN(CC2CC2)C(CC(=O)O)c2ccc(Cl)cc2)ccc1CCCN1C(=O)CCC1=O` (centres unmarked) [Example 132, 3-(4-Chloro-phenyl)-3-(cyclopropylmethyl-{4-[3-(2,5-dioxo-pyrrolidin-1-yl)-propyl]-3-methoxy-benzyl}-amino)-propionic acid], the IC50 came out at 192 nM.
